# Values of other authors in patent EP4602929A1, “ORAL PRODUCT WITH POWDER COATING” (Nicoventures Trading Limited, priority 2024, dated 2025).
row,solubility in water,SMILES
1,water soluble,"CC(/C=C/C=C(C)/C=C/C(=O)O)=C\C=C\C=C(C)\C=C\C=C(C)\C=C\C(=O)O (stereo in doubt) [norbixin, (2E,4E,6E,8E,10E,12E,14E,16E,18E)-4,8,13,17-tetramethylicosa-2,4,6,8,10,12,14,16,18-nonaenedioic acid]"
2,insoluble in water,"COC(=O)/C=C/C(C)=C\C=C\C(C)=C\C=C\C=C(C)\C=C\C=C(C)\C=C\C(=O)O [bixin, (2E,4E,6E,8E,10E,12E,14E,16Z,18E)-20-methoxy-4,8,13,17-tetramethyl-20-oxoicosa-2,4,6,8,10,12,14,16,18-nonaenoic acid]"
